Laboratory results: publication PMC11078216, “Discovery of potent and selective activity-based probes (ABPs) for the deubiquitinating enzyme USP30” (RSC Chemical Biology, 2024)

Legend:
Assay in all cases: ABPP chemical proteomics (LC-MS/MS) in HEK293T cells
Assay type in all cases: cell-based
FAAH = biological target: T1, FAAH (Homo sapiens, UniProt O00519)
T1 construct: endogenous in cells; host or cells: HEK293T
Experimental: (§1) To explore the selectivity of IMP-2587 and IMP-2586 across the whole proteome, we performed quantitative activity-based protein profiling (ABPP) in HEK293T cells following treatment with IMP-2587 or IMP-2586 (Fig. 3a). After ABP incubation, cells were lysed, and probe-labelled proteins were ligated to biotinylated capture reagents.[27] […] USP30 was outcompeted by corresponding parent inhibitors for each ABP (Fig. 5b and d and Tables S3 and S5, ESI ^†), confirming the high potency and rapid engagement of IMP-2587 and IMP-2586 in cells. […] DESI1 and DESI2 are small ubiquitin-related modifier (SUMO) proteases,[3,29–32] and IMP-2587 and IMP-2586 may offer a starting point for future development of DESI ABPs. […]
(§2) d) Live cell probe incubation, lysate click chemistry and precipitation 6-well HEK293T cells were incubated with media containing compounds ABP 2 and ABP 4 at indicated concentrations for 1 h at 37 °C. The cells were washed with PBS and lysed with lysis buffer (50 μL (1% (v/v) Triton X-100, 0.1% (w/v) sodium dodecyl sulfate (SDS), EDTA-free complete protease inhibitor cocktail (1×, Roche) in PBS on ice for 10 min. The lysates were scraped and transferred to corresponding Lo-Bind Eppendorfs. Each lysate was sonicated for 1 minute, and the samples centrifuges at 5,000 x g at 4 °C for 5 minutes to pellet insoluble cellular debris. The supernatant was collected, and protein concentration was determined using the DC Protein Assay (Bio-Rad) as per manufacturer’s instructions, and normalised to lowest concentrated sample (e.g. 1 mg/mL, using lysis buffer). The following “click mixture” was prepared separately, preparing 6 μL for every 100 μL of […]
(§3) Capture reagent (AzRB/AzT for ABP 2, YnT/YnB for ABP 4 10 mM in DMSO, 1 vol; final concentration […]
(§4) CuSO4 (50 mM in water, 2 vol; final concentration in reaction 1 mM)
(§5) TCEP (50 mM in water, 2 vol; final concentration in reaction 1 mM)
(§6) TBTA (10 mM in DMSO, 1 vol; final concentration in reaction 100 µM)
(§7) The click mixture was vortexed and incubated at room temperature for 2 min before 6 μL of the mixture was added to every 100 μL of lysate. The reaction mixtures were shaken at room temperature for 1 h before being quenched with EDTA (500 mM in H2O) to a final concentration of 10 mM.
(§8) Proteins were precipitated by adding H2O (1 vol), MeOH (2 vol) and CHCl3 (0.5 vol), vortexing briefly then centrifuging at 17,000 × g for 5 min. The top H2O/MeOH layer was discarded and the middle layer of protein pellet and lower CHCl3 layer retained. The suspension was washed with MeOH (300 μL), and sonicated to break up the pellet. The proteins were pelleted by centrifugation at 10,000–17000 × g for 5–10 min or until a compact pellet was formed. The protein pellet was washed once more with MeOH (1 mL). The pellet was resuspended by sonicating and completely dissolving in 1% (w/v) SDS in PBS (to 5 mg/mL protein) before being made up to 1 mg/mL protein with PBS.
(§9) The lysate samples (10-20 μg) were mixed with 4× Laemmli sample loading buffer (250 mM Tris -HCl pH 6.8, 30% (v/v) glycerol, 10% (w/v) SDS, 0.05% (w/v) bromophenol blue) supplemented with 20% v/v β-mercaptoethanol (BME) and boiled for 10 min at 95 °C. The resulting protein samples were separated according to the protocol in section 3.2.c. Gel were imaged on a Typhoon imager (GE Healthcare; λEx 532 nm, λEm 575 nm for TAMRA. For protein loading quantification, gels were stained with Coomassie blue staining solution overnight, rinsed with water and imaged on an ImageQuant™ LAS 4000 imager (GE Healthcare). f) Neutravidin biotin enrichment (Affinity pull-down)
(§10) Click chemistry and precipitation steps were carried out as described in section 3.2.d, on at least 400ug of protein per sample. The pellet was resuspended by sonicating and completely dissolving in 1% (w/v) SDS in HEPES 50 mM pH 8.0, before being made up to 1 mg/mL protein with HEPES 50 mM pH 8.0 to […]
(§11) achieve a final concentration of 0.2% SDS. 20uL of each samples was collected as TL (Total lysate) […]
(§12) samples. […]

ALDH1A1 = biological target: T2, ALDH1A1 (Homo sapiens, UniProt P00352)
T2 construct: endogenous in cells; host or cells: HEK293T
Experimental: as §1, §2, §3, §4, §5, §6, §7, §8, §9, §10, §11, §12

FAAH2 = biological target: T3, FAAH2 (Homo sapiens, UniProt Q6GMR7)
T3 construct: endogenous in cells; host or cells: HEK293T
Experimental: as §1, §2, §3, §4, §5, §6, §7, §8, §9, §10, §11, §12

MRPS2 = biological target: T4, MRPS2 (Homo sapiens, UniProt Q9Y399)
T4 construct: endogenous in cells; host or cells: HEK293T
Experimental: as §1, §2, §3, §4, §5, §6, §7, §8, §9, §10, §11, §12

ALDH3A2 = biological target: T5, ALDH3A2 (Homo sapiens, UniProt P51648)
T5 construct: endogenous in cells; host or cells: HEK293T
Experimental: as §1, §2, §3, §4, §5, §6, §7, §8, §9, §10, §11, §12

ABHD6 = biological target: T6, ABHD6 (Homo sapiens, UniProt Q9BV23)
T6 construct: endogenous in cells; host or cells: HEK293T
Experimental: as §1, §2, §3, §4, §5, §6, §7, §8, §9, §10, §11, §12

ALDH9A1 = biological target: T7, ALDH9A1 (Homo sapiens, UniProt P49189)
T7 construct: endogenous in cells; host or cells: HEK293T
Experimental: as §1, §2, §3, §4, §5, §6, §7, §8, §9, §10, §11, §12

NIT1 = biological target: T8, NIT1 (Homo sapiens, UniProt Q86X76)
T8 construct: endogenous in cells; host or cells: HEK293T
Experimental: as §1, §2, §3, §4, §5, §6, §7, §8, §9, §10, §11, §12

PARK7 = biological target: T9, PARK7 (Homo sapiens, UniProt Q99497); conditions: 30 nM, 10 min
T9 construct: endogenous in cells; host or cells: HEK293T
Experimental: as §1, §2, §3, §4, §5, §6, §7, §8, §9, §10, §11, §12

PGAP1 = biological target: T10, PGAP1 (Homo sapiens, UniProt Q75T13)
T10 construct: endogenous in cells; host or cells: HEK293T
Experimental: as §1, §2, §3, §4, §5, §6, §7, §8, §9, §10, §11, §12

PPAT = biological target: T11, PPAT (Homo sapiens, UniProt Q06203)
T11 construct: endogenous in cells; host or cells: HEK293T
Experimental: as §1, §2, §3, §4, §5, §6, §7, §8, §9, §10, §11, §12

SRP68 = biological target: T12, SRP68 (Homo sapiens, UniProt Q9UHB9)
T12 construct: endogenous in cells; host or cells: HEK293T
Experimental: as §1, §2, §3, §4, §5, §6, §7, §8, §9, §10, §11, §12

[1] = compound 1 out-competition with IMP-2587 labelling, HEK293T (Table S3, Fig.5b)
[2] = IMP-2587 labelling vs DMSO, 30 nM, 10 min, HEK293T (Table S2, Fig.5a)
[3] = IMP-2586 labelling vs DMSO, 30 nM, 10 min, HEK293T (Table S4, Fig.5c)
[4] = compound 3 out-competition with IMP-2586 labelling, HEK293T (Table S5, Fig.5d)

T11 sequence (Q06203 12-517): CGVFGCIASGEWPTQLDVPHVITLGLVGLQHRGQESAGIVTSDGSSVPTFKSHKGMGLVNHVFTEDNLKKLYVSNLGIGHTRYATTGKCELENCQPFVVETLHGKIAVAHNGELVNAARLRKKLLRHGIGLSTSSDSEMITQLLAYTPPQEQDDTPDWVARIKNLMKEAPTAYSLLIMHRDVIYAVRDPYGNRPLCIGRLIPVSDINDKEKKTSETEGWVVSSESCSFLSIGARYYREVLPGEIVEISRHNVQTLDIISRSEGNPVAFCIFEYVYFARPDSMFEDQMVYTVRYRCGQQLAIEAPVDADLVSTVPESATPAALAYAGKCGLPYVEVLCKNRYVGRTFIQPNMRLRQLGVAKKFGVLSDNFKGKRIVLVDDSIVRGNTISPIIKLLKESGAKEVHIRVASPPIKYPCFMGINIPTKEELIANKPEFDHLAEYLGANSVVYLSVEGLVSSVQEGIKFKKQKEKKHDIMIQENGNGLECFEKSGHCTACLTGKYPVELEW
T5 sequence (P51648 whole entry): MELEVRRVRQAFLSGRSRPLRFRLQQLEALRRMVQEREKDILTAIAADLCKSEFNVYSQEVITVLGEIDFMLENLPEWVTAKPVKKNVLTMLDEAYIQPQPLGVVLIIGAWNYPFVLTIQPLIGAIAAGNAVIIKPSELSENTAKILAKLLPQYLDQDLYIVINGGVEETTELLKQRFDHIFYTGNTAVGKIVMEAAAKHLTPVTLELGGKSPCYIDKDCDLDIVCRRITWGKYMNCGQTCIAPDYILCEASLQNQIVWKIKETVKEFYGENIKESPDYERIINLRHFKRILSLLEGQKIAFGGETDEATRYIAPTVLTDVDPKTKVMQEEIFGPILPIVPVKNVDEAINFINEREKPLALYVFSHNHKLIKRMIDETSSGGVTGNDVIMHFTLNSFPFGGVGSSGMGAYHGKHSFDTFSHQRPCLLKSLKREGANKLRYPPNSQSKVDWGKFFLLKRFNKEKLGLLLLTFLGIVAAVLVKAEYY
T3 sequence (Q6GMR7 whole entry): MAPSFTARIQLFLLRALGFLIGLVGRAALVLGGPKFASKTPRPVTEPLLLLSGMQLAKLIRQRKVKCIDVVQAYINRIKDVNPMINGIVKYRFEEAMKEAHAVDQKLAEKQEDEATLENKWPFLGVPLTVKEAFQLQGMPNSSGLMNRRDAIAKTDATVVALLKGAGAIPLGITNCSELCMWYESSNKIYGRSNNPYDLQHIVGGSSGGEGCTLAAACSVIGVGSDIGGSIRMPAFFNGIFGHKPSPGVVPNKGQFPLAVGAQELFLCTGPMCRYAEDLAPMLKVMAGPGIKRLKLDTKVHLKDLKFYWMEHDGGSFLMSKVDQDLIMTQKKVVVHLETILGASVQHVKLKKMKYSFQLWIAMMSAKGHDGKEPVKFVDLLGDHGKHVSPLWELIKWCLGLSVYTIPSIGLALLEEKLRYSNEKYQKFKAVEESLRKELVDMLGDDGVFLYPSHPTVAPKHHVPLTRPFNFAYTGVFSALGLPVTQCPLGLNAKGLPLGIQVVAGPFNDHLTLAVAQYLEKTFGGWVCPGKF
T9 sequence (Q99497 whole entry): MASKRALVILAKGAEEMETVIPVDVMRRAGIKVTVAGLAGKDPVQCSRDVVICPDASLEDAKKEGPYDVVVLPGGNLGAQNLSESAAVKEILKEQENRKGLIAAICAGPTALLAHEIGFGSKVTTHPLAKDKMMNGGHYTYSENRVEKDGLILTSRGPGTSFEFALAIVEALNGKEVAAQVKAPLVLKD
T7 sequence (P49189 whole entry): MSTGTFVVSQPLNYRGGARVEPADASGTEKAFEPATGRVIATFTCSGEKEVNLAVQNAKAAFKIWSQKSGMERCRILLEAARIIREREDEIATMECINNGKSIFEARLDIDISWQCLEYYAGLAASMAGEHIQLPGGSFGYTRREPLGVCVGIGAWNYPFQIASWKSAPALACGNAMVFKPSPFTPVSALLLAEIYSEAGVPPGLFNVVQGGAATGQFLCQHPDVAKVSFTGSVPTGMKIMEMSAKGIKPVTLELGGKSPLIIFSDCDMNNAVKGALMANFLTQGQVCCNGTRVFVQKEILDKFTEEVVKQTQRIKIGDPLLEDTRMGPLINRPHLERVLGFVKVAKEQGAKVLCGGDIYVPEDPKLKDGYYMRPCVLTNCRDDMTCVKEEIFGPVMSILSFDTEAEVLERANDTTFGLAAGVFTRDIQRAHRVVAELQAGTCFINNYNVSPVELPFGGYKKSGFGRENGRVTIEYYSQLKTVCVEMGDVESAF
T10 sequence (Q75T13 whole entry): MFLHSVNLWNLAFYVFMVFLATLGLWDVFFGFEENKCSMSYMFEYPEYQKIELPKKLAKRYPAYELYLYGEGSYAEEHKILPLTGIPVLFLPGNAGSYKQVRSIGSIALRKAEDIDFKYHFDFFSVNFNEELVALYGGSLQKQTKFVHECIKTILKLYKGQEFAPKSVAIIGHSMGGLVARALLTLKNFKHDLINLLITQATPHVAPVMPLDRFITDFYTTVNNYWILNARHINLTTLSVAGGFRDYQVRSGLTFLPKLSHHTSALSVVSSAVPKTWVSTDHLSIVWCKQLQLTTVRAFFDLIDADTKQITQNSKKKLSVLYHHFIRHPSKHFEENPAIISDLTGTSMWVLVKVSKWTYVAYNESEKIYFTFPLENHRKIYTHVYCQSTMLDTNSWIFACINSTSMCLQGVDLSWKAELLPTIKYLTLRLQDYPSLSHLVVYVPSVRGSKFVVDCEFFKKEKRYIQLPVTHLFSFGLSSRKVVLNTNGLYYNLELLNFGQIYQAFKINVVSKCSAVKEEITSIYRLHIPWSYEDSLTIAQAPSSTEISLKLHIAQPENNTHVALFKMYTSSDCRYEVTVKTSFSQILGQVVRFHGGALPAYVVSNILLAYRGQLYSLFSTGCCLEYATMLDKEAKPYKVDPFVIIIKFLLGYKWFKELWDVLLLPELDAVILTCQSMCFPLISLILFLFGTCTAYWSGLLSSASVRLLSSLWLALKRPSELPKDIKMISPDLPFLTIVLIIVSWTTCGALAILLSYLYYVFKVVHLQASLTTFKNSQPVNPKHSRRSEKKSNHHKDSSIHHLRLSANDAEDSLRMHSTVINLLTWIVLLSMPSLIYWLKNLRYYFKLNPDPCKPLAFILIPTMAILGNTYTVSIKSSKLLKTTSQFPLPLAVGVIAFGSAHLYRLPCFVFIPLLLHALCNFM
T8 sequence (Q86X76 14-327): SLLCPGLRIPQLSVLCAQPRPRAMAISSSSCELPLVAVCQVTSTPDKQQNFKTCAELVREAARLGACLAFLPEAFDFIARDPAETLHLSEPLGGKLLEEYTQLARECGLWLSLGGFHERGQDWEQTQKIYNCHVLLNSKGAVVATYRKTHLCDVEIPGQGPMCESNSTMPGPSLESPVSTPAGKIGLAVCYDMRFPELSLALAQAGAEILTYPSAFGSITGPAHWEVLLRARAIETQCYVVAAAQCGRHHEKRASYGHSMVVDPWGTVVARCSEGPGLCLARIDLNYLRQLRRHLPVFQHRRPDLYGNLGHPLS
T6 sequence (Q9BV23 whole entry): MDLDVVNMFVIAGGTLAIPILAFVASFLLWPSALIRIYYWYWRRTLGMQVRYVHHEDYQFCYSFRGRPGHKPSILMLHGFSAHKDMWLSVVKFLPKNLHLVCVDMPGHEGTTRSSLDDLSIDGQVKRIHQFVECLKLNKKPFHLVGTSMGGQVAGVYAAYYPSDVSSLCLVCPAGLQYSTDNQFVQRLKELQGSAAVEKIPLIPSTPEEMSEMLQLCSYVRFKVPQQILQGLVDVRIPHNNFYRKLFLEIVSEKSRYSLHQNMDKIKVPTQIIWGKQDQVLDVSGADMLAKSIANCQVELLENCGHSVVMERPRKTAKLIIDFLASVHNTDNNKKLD
T1 sequence (O00519 whole entry): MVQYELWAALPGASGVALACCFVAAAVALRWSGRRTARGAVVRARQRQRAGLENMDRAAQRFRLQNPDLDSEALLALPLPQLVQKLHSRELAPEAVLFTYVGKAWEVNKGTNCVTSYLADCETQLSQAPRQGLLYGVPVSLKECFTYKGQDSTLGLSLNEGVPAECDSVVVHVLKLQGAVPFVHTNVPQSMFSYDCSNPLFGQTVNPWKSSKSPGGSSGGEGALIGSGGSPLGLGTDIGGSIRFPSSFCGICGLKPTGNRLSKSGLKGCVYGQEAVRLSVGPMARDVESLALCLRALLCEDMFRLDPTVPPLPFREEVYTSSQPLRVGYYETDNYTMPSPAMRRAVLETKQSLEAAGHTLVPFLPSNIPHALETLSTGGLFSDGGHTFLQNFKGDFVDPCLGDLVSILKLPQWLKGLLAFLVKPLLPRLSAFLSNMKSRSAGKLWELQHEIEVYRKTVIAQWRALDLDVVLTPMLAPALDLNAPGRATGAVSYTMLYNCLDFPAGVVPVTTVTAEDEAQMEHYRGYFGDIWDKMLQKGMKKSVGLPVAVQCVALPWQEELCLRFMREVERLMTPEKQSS
T2 sequence (P00352 whole entry): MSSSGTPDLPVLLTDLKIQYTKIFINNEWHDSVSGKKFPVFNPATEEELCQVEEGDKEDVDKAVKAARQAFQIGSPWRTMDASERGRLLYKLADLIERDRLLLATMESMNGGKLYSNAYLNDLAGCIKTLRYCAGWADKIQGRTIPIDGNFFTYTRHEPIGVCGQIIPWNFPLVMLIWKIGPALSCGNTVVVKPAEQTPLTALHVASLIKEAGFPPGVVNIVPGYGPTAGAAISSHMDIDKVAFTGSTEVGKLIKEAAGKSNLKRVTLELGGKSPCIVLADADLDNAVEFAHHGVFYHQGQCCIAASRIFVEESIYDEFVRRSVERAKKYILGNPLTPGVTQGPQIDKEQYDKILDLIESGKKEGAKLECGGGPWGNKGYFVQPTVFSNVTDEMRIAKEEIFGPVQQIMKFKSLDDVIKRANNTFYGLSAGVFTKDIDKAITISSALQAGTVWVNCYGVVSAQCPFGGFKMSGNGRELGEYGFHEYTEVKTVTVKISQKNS

## N#CN1CC[C@H](CC(=O)Nc2cc(-c3cccc(Cl)c3)no2)C1 [compound 1, reference compound]
FAAH; [1]
  Difference (log2 fold change of enrichment): -3.46
ALDH1A1; [1]
  Difference (log2 fold change of enrichment): -2.59
FAAH2; [1]
  Difference (log2 fold change of enrichment): -3.82
MRPS2; [1]
  Difference (log2 fold change of enrichment): -2.58
ALDH3A2; [1]
  Difference (log2 fold change of enrichment): -1.88
ABHD6; [1]
  Difference (log2 fold change of enrichment): -1.95
ALDH9A1; [1]
  Difference (log2 fold change of enrichment): -1.60
NIT1; [1]
  Difference (log2 fold change of enrichment): -1.86

## C#Cc1cccc(-c2cc(NC(=O)CC3CCN(C#N)C3)on2)c1 (stereo not drawn) [IMP-2587]
FAAH; [2]
  Difference (log2 fold change of enrichment): 3.97
ALDH1A1; [2]
  Difference (log2 fold change of enrichment): 2.95
FAAH2; [2]
  Difference (log2 fold change of enrichment): 4.10
MRPS2; [2]
  Difference (log2 fold change of enrichment): 2.58
ALDH3A2; [2]
  Difference (log2 fold change of enrichment): 2.95
ABHD6; [2]
  Difference (log2 fold change of enrichment): 2.06
ALDH9A1; [2]
  Difference (log2 fold change of enrichment): 1.70
NIT1; [2]
  Difference (log2 fold change of enrichment): 2.01
PARK7; IMP-2587 labelling vs DMSO, HEK293T (Table S2, Fig.5a)
  Difference (log2 fold change of enrichment): 1.32

## N#CN1CC[C@@H](NC(=O)c2cc(-c3ccccc3Oc3ccc(N=[N+]=[N-])cc3)n[nH]2)C1 [IMP-2586]
PGAP1; [3]
  Difference (log2 fold change of enrichment): 2.66
PPAT; [3]
  Difference (log2 fold change of enrichment): 0.83
SRP68; [3]
  Difference (log2 fold change of enrichment): 0.45
PARK7; IMP-2586 labelling vs DMSO, HEK293T (Table S4, Fig.5c)
  Difference (log2 fold change of enrichment): 1.30

## N#CN1CC[C@@H](NC(=O)c2cc(-c3ccccc3Oc3ccccc3)n[nH]2)C1 [compound 3, reference compound]
PGAP1; [4]
  Difference (log2 fold change of enrichment): -2.38
PPAT; [4]
  Difference (log2 fold change of enrichment): -0.44
SRP68; [4]
  Difference (log2 fold change of enrichment): -0.40
